Test results reported in US20230106174A1, “RAS INHIBITORS” (Revolution Medicines, Inc., priority 2021, published 2023).
Like-named read-outs stand apart in the source and are kept apart here.

Experiments:
K-Ras G12C = molecular target: T1, K-Ras G12C (Homo sapiens, UniProt P01116+P62937, G12C); test: pERK potency assay in NCI-H358 cells (AlphaLISA SureFire or In-Cell Western); assay type: cell-based; details: 4 hours incubation
T1 construct: endogenous in cells; host or cells: NCI-H358
Method: The purpose of this assay was to measure the ability of test compounds to inhibit K-Ras in cells. […] This procedure measures a decrease in cellular pERK in response to test compounds. The procedure described below in NCI-H358 cells is applicable to K-Ras G12C. […]
NCI-H358 cells were grown and maintained using media and procedures recommended by the ATCC. On the day prior to compound addition, cells were plated in 384-well cell culture plates (40 μl/well) and grown overnight in a 37° C., 5% CO2 incubator. Test compounds were prepared in 10, 3-fold dilutions in DMSO, with a high concentration of 10 mM. On the day of assay, 40 nL of test compound was added to each well of cell culture plate using an Echo550 liquid handler (LabCyte®). Concentrations of test compound were tested in duplicate. After compound addition, cells were incubated 4 hours at 37° C., 5% CO2. Following incubation, culture medium was removed and cells were washed once with phosphate buffered saline.
In some experiments, cellular pERK level was determined using the AlphaLISA SureFire Ultra p-ERK1/2 Assay Kit (PerkinElmer). Cells were lysed in 25 μL lysis buffer, with shaking at 600 RPM at room temperature. Lysate (10 μL) was transferred to a 384-well Opti-plate (PerkinElmer) and 5 μL acceptor mix was added. After a 2-hour incubation in the dark, 5 μL donor mix was added, the plate was sealed, and incubated 2 hours at room temperature. Signal was read on an Envision plate reader (PerkinElmer) using standard AlphaLISA settings. Analysis of raw data was carried out in Excel (Microsoft) and Prism (GraphPad). Signal was plotted vs. the decadal logarithm of compound concentration, and IC50 was determined by fitting a 4-parameter sigmoidal concentration response model.
In other experiments, cellular pERK was determined by In-Cell Western. Following compound treatment, cells were washed twice with 200 μL tris buffered saline (TBS) and fixed for 15 minutes with 150 μL 4% paraformaldehyde in TBS. Fixed cells were washed 4 times for 5 minutes with TBS containing 0.1% Triton X-100 (TBST) and then blocked with 100 μL Odyssey blocking buffer (LI-COR) for 60 minutes at room temperature. […] Cells were washed 4 times for 5 minutes with TBST. Secondary antibody (IR-800CW rabbit, LI-COR, diluted 1:800) and DNA stain DRAQ5 (LI-COR, diluted 1:2000) were added and incubated 1-2 hours at room temperature. Cells were washed 4 times for 5 minutes with TBST. Plates were scanned on a Li—COR Odyssey CLx Imager. Analysis of raw data was carried out in Excel (Microsoft) and Prism (GraphPad). Signal was plotted vs. the decadal logarithm of compound concentration, and IC50 was determined by fitting a 4-parameter sigmoidal concentration response model.

NCI-H358 (K-Ras G12C) = test: CellTiter-Glo cell viability assay, 5-day treatment, NCI-H358; assay type: cell-based; details: Homo sapiens, NCI-H358, 120 h
Text: Determination of Cell Viability in RAS Mutant Cancer Cell Lines
Protocol: CellTiter-Glo® Cell Viability Assay
Note—The following protocol describes a procedure for monitoring cell viability of K-Ras mutant cancer cell lines in response to a compound of the invention. Other RAS isoforms may be employed, though the number of cells to be seeded will vary based on cell line used.
The purpose of this cellular assay was to determine the effects of test compounds on the proliferation of three human cancer cell lines (NCI-H358 (K-Ras G12C), AsPC-1 (K-Ras G12D), and Capan-1 (K-Ras G12V)) over a 5-day treatment period by quantifying the amount of ATP present at endpoint using the CellTiter-Glo® 2.0 Reagent (Promega).
Cells were seeded at 250 cells/well in 40 μL of growth medium in 384-well assay plates and incubated overnight in a humidified atmosphere of 5% CO2 at 37° C. On the day of the assay, 10 mM stock solutions of test compounds were first diluted into 3 mM solutions with 100% DMSO. Well-mixed compound solutions (15 μL) were transferred to the next wells containing 30 μL of 100% DMSO, and repeated until a 9-concentration 3-fold serial dilution was made (starting assay concentration of 10 μM). Test compounds (132.5 nL) were directly dispensed into the assay plates containing cells. The plates were shaken for 15 seconds at 300 rpm, centrifuged, and incubated in a humidified atmosphere of 5% CO2 at 37° C. for 5 days. On day 5, assay plates and their contents were equilibrated to room temperature for approximately 30 minutes. CellTiter-Glo® 2.0 Reagent (25 μL) was added, and plate contents were mixed for 2 minutes on an orbital shaker before incubation at room temperature for 10 minutes. Luminescence was measured using the PerkinElmer Enspire. Data were normalized by the following: (Sample signal/Avg. DMSO)*100. The data were fit using a four-parameter logistic fit.

T1 sequence (P01116 1-188 isoform P01116-2 G12C): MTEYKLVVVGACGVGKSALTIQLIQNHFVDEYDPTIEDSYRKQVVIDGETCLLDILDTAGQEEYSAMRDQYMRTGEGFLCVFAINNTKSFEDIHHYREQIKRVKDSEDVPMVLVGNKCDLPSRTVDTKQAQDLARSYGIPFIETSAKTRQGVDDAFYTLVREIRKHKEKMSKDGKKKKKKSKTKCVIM
T1 sequence (P62937 whole entry): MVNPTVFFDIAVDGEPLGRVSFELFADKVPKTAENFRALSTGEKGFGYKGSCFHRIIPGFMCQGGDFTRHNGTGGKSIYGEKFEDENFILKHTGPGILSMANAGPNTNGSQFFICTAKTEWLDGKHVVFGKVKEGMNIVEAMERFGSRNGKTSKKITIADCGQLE

Question: Which IC50 (K-Ras G12C) does the source give for `C=CC(=O)N1CCOC2(CCN(C(=O)N(C)[C@H](C(=O)N[C@H]3Cc4cncc(c4)-c4ccc5c(c4)c(c(-c4cccnc4[C@H](C)OC)n5CC)CC(C)(C)COC(=O)[C@@H]4CCCN(N4)C3=O)C(C)C)CC2)C1` (atropisomer, axis not shown) [Example A124] here?
Answer: Its IC50 is over 1 µM.

Question: For `C=CC(=O)N1CCOC2(CCN(C(=O)N(C)[C@H](C(=O)N[C@H]3Cc4nccc(n4)-c4ccc5c(c4)c(c(-c4cccnc4[C@H](C)OC)n5CC)CC(C)(C)COC(=O)[C@@H]4CCCN(N4)C3=O)C(C)C)CC2)C1` (atropisomer, axis not shown) [Example A191], which IC50 (K-Ras G12C) is on record?
Answer: Its IC50 is over 1 µM.

Question: And the IC50 (NCI-H358 (K-Ras G12C))?
Answer: The IC50 was over 1 µM.

Question: Which ring closure, yield of all isomers (from CCn1c(-c2cc(N3CCN(C(=O)OCc4ccccc4)CC3)cnc2[C@H](C)OC)c(CC(C)(C)CO)c2cc(-c3csc(C[C@H](NC(=O)OC(C)(C)C)C(=O)N4CCC[C@@H](C(=O)O)N4)n3)ccc21, ester bond, EDCI/HOBt/DIEA, MeCN, 10.3 mM, 25.0 °C, 16.0 h) does the source give for `CCn1c(-c2cc(N3CCN(C(=O)OCc4ccccc4)CC3)cnc2[C@H](C)OC)c2c3cc(ccc31)-c1csc(n1)C[C@H](NC(=O)OC(C)(C)C)C(=O)N1CCC[C@H](N1)C(=O)OCC(C)(C)C2` here?
Answer: The ring closure, yield of all isomers was 54.8%.

Question: For `C=CC(=O)N1CCN(C)C2(CCN(C(=O)N(C)[C@H](C(=O)N[C@H]3C[C@H]4CN(CCO4)c4ccc5c(c4)c(c(-c4cccnc4[C@H](C)OC)n5CC)CC(C)(C)COC(=O)[C@@H]4CCCN(N4)C3=O)C(C)C)CC2)C1` (atropisomer, axis not shown) [Example A189], which IC50 (K-Ras G12C) is on record?
Answer: Its IC50 is over 1 µM.

Question: Which ring closure, yield of all isomers (from CCn1c(-c2cccnc2[C@H](C)OC)c(CC(C)(C)CO)c2cc(-c3nc(C[C@H](NC(=O)OC(C)(C)C)C(=O)N4CCC[C@@H](C(=O)O)N4)no3)ccc21, ester bond, EDCI/HOBT/DIPEA, DCM, 6.8 mM, 25.0 °C, 16.0 h) does the source give for `CCn1c(-c2cccnc2[C@H](C)OC)c2c3cc(ccc31)-c1nc(no1)C[C@H](NC(=O)OC(C)(C)C)C(=O)N1CCC[C@H](N1)C(=O)OCC(C)(C)C2` here?
Answer: Its ring closure, yield of all isomers is 18%.

Question: For `C=CC(=O)N1CC2(CCN(C(=O)N(C)[C@H](C(=O)N[C@H]3C[C@H]4CN(CCO4)c4ccc5c(c4)c(c(-c4cccnc4[C@H](C)OC)n5CC)CC(C)(C)COC(=O)[C@@H]4CCCN(N4)C3=O)C(C)C)CC2)C1` (atropisomer, axis not shown) [Example A121], which IC50 (K-Ras G12C) is on record?
Answer: The IC50 was over 1 µM.

Question: For `CCn1c(-c2cccnc2[C@H](C)OC)c2c3cc(ccc31)-c1cc(C(F)F)cc(n1)C[C@H](NC(=O)[C@H](C(C)C)N(C)C(=O)N1CCC3(CCN(C(=O)/C=C/CN(C)C)C3)CC1)C(=O)N1CCC[C@H](N1)C(=O)OCC(C)(C)C2` (atropisomer, axis not shown) [Example A39], which IC50 (NCI-H358 (K-Ras G12C)) is on record?
Answer: The IC50 was over 1 µM.

Question: Which IC50 (K-Ras G12C) does the source give for `C=CC(=O)N1COC2(CCN(C(=O)N(C)[C@H](C(=O)N[C@H]3CC4=NC=C(O4)c4ccc5c(c4)c(c(-c4cccnc4[C@H](C)OC)n5CC)CC(C)(C)COC(=O)[C@@H]4CCCN(N4)C3=O)C(C)C)CC2)C1` (atropisomer, axis not shown) [Example A37] here?
Answer: Its IC50 is over 1 µM.

Question: With `CO[C@@H](C)c1ncccc1-c1c2c3cc(ccc3n1CC(F)(F)F)C1CN(C1)C[C@H](NC(=O)OC(C)(C)C)C(=O)N1CCC[C@H](N1)C(=O)OCC(C)(C)C2` as the molecule, how does the ring closure, yield of all isomers (from CO[C@@H](C)c1ncccc1-c1c(CC(C)(C)CO)c2cc(C3CN(C[C@H](NC(=O)OC(C)(C)C)C(=O)N4CCC[C@@H](C(=O)O)N4)C3)ccc2n1CC(F)(F)F, ester bond, EDCI/HOBt/DIPEA, DCM, 6.45 mM, 30.0 °C, 16.0 h) read?
Answer: Its ring closure, yield of all isomers is 37%.

Question: Which results are given for `C=CC(=O)N1CCN(CC)C2(CCN(C(=O)N(C)[C@H](C(=O)N[C@H]3C[C@H]4CN(CCO4)c4ccc5c(c4)c(c(-c4cccnc4[C@H](C)OC)n5CC)CC(C)(C)COC(=O)[C@@H]4CCCN(N4)C3=O)C(C)C)CC2)C1` (atropisomer, axis not shown) [Example A38]?
Answer: IC50 (K-Ras G12C): > 1 µM; IC50 (NCI-H358 (K-Ras G12C)): > 1 µM

Question: Which IC50 (K-Ras G12C) does the source give for `C=CC(=O)N1CCOC2(CCN(C(=O)N(C)[C@H](C(=O)N[C@H]3C[C@@]4(C)CN(CCO4)c4ccc5c(c4)c(c(-c4cccnc4[C@H](C)OC)n5CC)CC(C)(C)COC(=O)[C@@H]4CCCN(N4)C3=O)C(C)C)CC2)C1` (atropisomer, axis not shown) [Example A130] here?
Answer: The IC50 was over 0.89 µM.

Question: With `C=CC(=O)N1CCOC2(C1)CN(C(=O)N(C)[C@H](C(=O)N[C@H]1C[C@H]3CN(CCO3)c3ccc4c(c3)c(c(-c3cccnc3[C@H](C)OC)n4CC)CC(C)(C)COC(=O)[C@@H]3CCCN(N3)C1=O)C(C)C)C2` (atropisomer, axis not shown) [Example A136] as the molecule, how does the IC50 (K-Ras G12C) read?
Answer: The IC50 was over 1 µM.

Question: For `CO[C@@H](C)c1ncccc1-c1c2c3cc(ccc3n1CC(F)(F)F)C1CCN(C1)C[C@H](NC(=O)OC(C)(C)C)C(=O)N1CCC[C@H](N1)C(=O)OCC(C)(C)C2`, which ring closure, yield of all isomers (from CO[C@@H](C)c1ncccc1-c1c(CC(C)(C)CO)c2cc(C3CCN(C[C@H](NC(=O)OC(C)(C)C)C(=O)N4CCC[C@@H](C(=O)O)N4)C3)ccc2n1CC(F)(F)F, ester bond, EDCI/HOBt/DIPEA, DCM, 6.97 mM, 25.0 °C, 16.0 h) is on record?
Answer: The ring closure, yield of all isomers was 21%.

Question: Which ring closure, yield of all isomers (from CO[C@@H](C)c1ncccc1-c1c(CC(C)(C)COC(=O)[C@@H]2CCCNN2)c2cc(-c3coc(C[C@H](NC(=O)OCc4ccccc4)C(=O)O)n3)ccc2n1CC(F)(F)F, amide bond, EDCI/HOBt/DIPEA, DCM, 6.06 mM, 25.0 °C, 16.0 h) does the source give for `CO[C@@H](C)c1ncccc1-c1c2c3cc(ccc3n1CC(F)(F)F)-c1coc(n1)C[C@H](NC(=O)OCc1ccccc1)C(=O)N1CCC[C@H](N1)C(=O)OCC(C)(C)C2` here?
Answer: The ring closure, yield of all isomers was 21%.

Question: For `C=CC(=O)N1CCOC2(CCN(C(=O)N(C)[C@H](C(=O)N[C@H]3Cc4cncc(n4)-c4ccc5c(c4)c(c(-c4cccnc4[C@H](C)OC)n5CC)CC(C)(C)COC(=O)[C@@H]4CCCN(N4)C3=O)C(C)C)CC2)C1` (atropisomer, axis not shown) [Example A36], which IC50 (K-Ras G12C) is on record?
Answer: Its IC50 is over 1 µM.

Question: With `C=CCOC(=O)N[C@H]1Cc2nc(no2)-c2ccc3c(c2)c(c(-c2cccnc2[C@H](C)OC)n3CC)CC(C)(C)COC(=O)[C@@H]2CCCN(N2)C1=O` as the molecule, how does the ring closure, yield of all isomers (from C=CCOC(=O)NC(Cc1nc(-c2ccc3c(c2)c(CC(C)(C)COC(=O)[C@@H]2CCCNN2)c(-c2cccnc2[C@H](C)OC)n3CC)no1)C(=O)O, amide bond, HATU/DIPEA, DCM, 139.0 mM, 25.0 °C, 16.0 h) read?
Answer: The ring closure, yield of all isomers was 33%.

Question: For `CCn1c(-c2cc(N3CCN4CCCC[C@@H]4C3)cnc2[C@H](C)OC)c2c3cc(ccc31)-c1cccc(c1)C[C@H](NC(=O)OC(C)(C)C)C(=O)N1CCC[C@H](N1)C(=O)OCC(C)(C)C2`, which ring closure, yield of all isomers (from CCn1c(-c2cc(N3CCN4CCCC[C@@H]4C3)cnc2[C@H](C)OC)c(CC(C)(C)CO)c2cc(-c3cccc(C[C@H](NC(=O)OC(C)(C)C)C(=O)N4CCC[C@@H](C(=O)O)N4)c3)ccc21, ester bond, EDCI/HOBt/DIPEA, DCM, 11.3 mM, 25.0 °C, 16.0 h) is on record?
Answer: The ring closure, yield of all isomers was 62%.

Question: For `CO[C@@H](C)c1ncccc1-c1c2c3cc(ccc3n1CC(F)(F)F)C1CCCN(C1)C[C@H](NC(=O)OC(C)(C)C)C(=O)N1CCC[C@H](N1)C(=O)OCC(C)(C)C2`, which ring closure, yield of all isomers (from CO[C@@H](C)c1ncccc1-c1c(CC(C)(C)CO)c2cc(C3CCCN(C[C@H](NC(=O)OC(C)(C)C)C(=O)N4CCC[C@@H](C(=O)O)N4)C3)ccc2n1CC(F)(F)F, ester bond, EDCI/HOBT/DIPEA, DCM, 6.2 mM, 25.0 °C) is on record?
Answer: The ring closure, yield of all isomers was 17%.
